Measured values: patent US20250186456A1, “PYRIMIDINE-FUSED CYCLIC COMPOUND AND PREPARATION METHOD AND USE THEREOF” (Genfleet Therapeutics (Shanghai) Inc., priority 2021, published 2025)
Like-named read-outs stand apart in the source and are kept apart here.

Tests used:
Assay type in all cases: cell-based, human
[1] = system: AsPC-1 cells (KRAS G12D mutation); assay: Cell proliferation inhibition assay, 3D, CellTiter-Glo 3D, AsPC-1; conditions: AsPC-1 3D sphere model, 5 days incubation
Description: AsPC-1 was purchased from ATCC; catalog No: CRL-1682; AGS was purchased from ATCC; catalog No: CRL-1739; RPMI1640 was purchased from Gibco; catalog No: 11875-093 2235123; F12K was purchased from Gibco; catalog No: 21127-022; FBS was purchased from Gibco; catalog No: 10099-141C; trypsin (containing EDTA) was purchased from Gibco; catalog No: 25200-072; CellTiter Glo-3D was purchased from Progema; catalog No: G9683; 384-well sphere plates were purchased from Corning; catalog No: 3830; white opaque 384-well plates were purchased from Corning; catalog No: 3570; cell counters were purchased from CHEMOMETEC; model: NC-200; microplate reader was purchased from PerkinElmer; model: Envison;
AsPC-1 is an endogenous human pancreatic cancer cell containing KRAS^G12D mutation, cultured in RPMI-1640 medium containing 10% FBS; AGS is a human gastric cancer cell line containing KRAS^G12D, cultured in F-12K medium containing 10% FBS. Cells in the logarithmic growth phase were taken, digested with trypsin (containing EDTA), collected, and counted. 800 AsPC-1 cells/well or 400 AGS cells/well, respectively, were seeded in a 384-well sphere plate and cultured overnight at 5% CO2 to establish a 3D cell model. 1000X stock solutions of compounds at a 3.16-fold concentration gradient of were prepared using DMSO, diluted 100-fold into a 10X compound stock solution using the medium described above. The 10X compound stock solution was added to each cell on 2nd day after cell seeding at a final concentration of 1X and a DMSO content of 0.1%. DMSO was used as a control in the experiment, and the medium was used as blank. After the addition of the compounds, the cells were incubated for 5 days. 30 μl of CellTiter-Glo work solution was added to each well, mixed well, and incubated for 30 minutes. After standing at room temperature for 30 minutes, 40 μl of the mixed solution was transferred to an opaque 384-well plate with a white clear bottom. Luminescence chemiluminescence value was read by a microplate reader, and the cell proliferation inhibition rate (IR (%)=(RLU control-RLU compound)/(RLU control-RLU blank)×100%) was calculated. The gradiently diluted concentration of the compounds and corresponding cell proliferation inhibition rate were fitted using XLFit four-parameters method, and the IC50 value was calculated. […] The results of some exemplary compounds are shown in Table 2 (“−” represents untested).

[2] = system: p-ERK in AGS cells (KRAS G12D mutation); assay: Cell p-ERK assay (HTRF, Advance ERK phospho-T202/Y204 kit); conditions: AGS cells, 3 hours incubation with compound, HTRF, read-out: AGS p-ERK IC50
How it was run: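 AGS cells (endogenous KRAS G12D) seeded at ~20000 cells/well overnight, then treated 3 h with 3.16-fold compound dilutions, 0.1% DMSO final. Lysates assayed for phospho-T202/Y204 ERK by HTRF after 4 h antibody incubation; inhibition vs DMSO and blank, IC50 by four-parameter fit.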

AGS cells (KRAS G12D) = assay: Cell proliferation inhibition assay, 3D, CellTiter-Glo 3D, AGS; conditions: AGS 3D sphere model, 5 days incubation
How it was run: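 Spheroids (800 AsPC-1 or 400 AGS cells/well; RPMI-1640 or F-12K with 10% FBS) formed overnight, then were dosed on day 2 with a 3.16-fold series at 0.1% DMSO. After 5 days, viability was read by CellTiter-Glo 3D luminescence, and IC50 came from four-parameter fits of inhibition versus DMSO control and medium blank.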

SMILES	IC50 ([1]; Homo sapiens, ASPC1, 120 h)	IC50 ([2]; Homo sapiens)	IC50 (AGS cells (KRAS G12D); Homo sapiens, 120 h)	IC50 [1]	IC50 [2]	IC50 (AGS cells (KRAS G12D))
C#Cc1cccc2cccc(-c3nc4c5c(nc(OCC67CCCN6CC(=C)C7)nc5c3F)N3C[C@H]5CC[C@H](N5)[C@H]3[C@H](CC)O4)c12 (stereo partly drawn) [Example Z595, (5S,5aS,6S,9R)-5-ethyl-2-(8-ethynylnaphthalen-1-yl)-1-fluoro-12-((2-methylenetetrahydro-1H-pyrrolizin-7a (5H)-yl)methoxy)-5a,6,7,8,9,10-hexahydro-5H-4-oxa-3,10a,11,13,14-pentaaza-6,9-methanonaphtho[1,8-ab]heptalene]	157 nM	119 nM	99 nM	–	–	–
C#Cc1c(F)ccc2cccc(-c3nc4c5c(nc(OCC67CCC8(CC8)N6CC(=C)C7)nc5c3F)N3C[C@H]5CC[C@H](N5)[C@H]3[C@H](C)O4)c12 (stereo partly drawn) [Example Z597]	–	–	–	98.7 nM	48.5 nM	47.9 nM
C#Cc1c(F)ccc2cc(O)cc(-c3nc4c5c(nc(OCC67CC(=C)CN6CC(=C)C7)nc5c3F)N3C[C@H]5CC[C@H](N5)[C@H]3CCO4)c12 [Example Z598]	5.55 nM	0.68 nM	1.23 nM	–	–	–
C#Cc1c(F)ccc2cccc(-c3nc4c5c(nc(OCC67CC(=C)CN6CC6(CC6)C7)nc5c3F)N3C[C@H]5CC[C@H](N5)[C@H]3[C@H](C)O4)c12 (stereo partly drawn) [Example Z599]	–	–	–	22.3 nM	27.6 nM	10.8 nM
C#Cc1c(F)ccc2cccc(-c3nc4c5c(nc(OCC67CCCN6CCC7=C)nc5c3F)N3C[C@H]5CC[C@H](N5)[C@H]3[C@H](C)O4)c12 (stereo partly drawn) [Example Z600, (5S,5aS,6S,9R)-2-(8-ethynyl-7-fluoronaphthalen-1-yl)-1-fluoro-5-methyl-12-((1-methylenetetrahydro-1H-pyrrolizin-7a (5H)-yl)methoxy)-5a,6,7,8,9,10-hexahydro-5H-4-oxa-3,10a, 11, 13, 14-pentaaza-6,9-methanonaphtho[1,8-ab]heptalene]	64.8 nM	18.3 nM	15.3 nM	–	–	–
C#Cc1c(F)ccc2cccc(-c3nc4c5c(nc(OCC67CCCN6CC(=CF)C7)nc5c3F)N3C[C@H]5CC[C@H](N5)[C@H]3[C@H](C)O4)c12 (stereo partly drawn) [Example Z601, (5S,5aS,6S,9R)-2-(8-ethynyl-7-fluoronaphthalen-1-yl)-1-fluoro-12-((2-(fluoromethylene)tetrahydro-1H-pyrrolizin-7a (5H)-yl)methoxy)-5-methyl-5a,6,7,8,9,10-hexahydro-5H-4-oxa-3,10a, 11, 13, 14-pentaaza-6,9-methanonaphtho[1,8-ab]heptalene]	39 nM	10.5 nM	13.5 nM	–	–	–
C#Cc1c(F)ccc2cccc(-c3nc4c5c(nc(OCC67CC(=C)CN6CCC76CC6)nc5c3F)N3C[C@H]5CC[C@H](N5)[C@H]3[C@H](C)O4)c12 (stereo partly drawn) [Example Z602, (58,5aS,6S,9R)-2-(8-ethynyl-7-fluoronaphthalen-1-yl)-1-fluoro-5-methyl-12-((6′-methylenetetrahydrospiro[cyclopropane-1, 1′-pyrrolizin]-7a′ (5′H)-yl)methoxy)-5a,6,7,8,9,10-hexahydro-5H-4-oxa-3,10a,11,13,14-pentaaza-6,9-methanonaphtho[1,8-ab]heptalene]	–	–	–	90.4 nM	34.1 nM	26.5 nM
C#Cc1c(F)ccc2cccc(-c3nc4c5c(nc(OCC67CC(=C)CN6[C@@H]6C[C@@H]6C7)nc5c3F)N3C[C@H]5CC[C@H](N5)[C@H]3[C@H](C)O4)c12 (stereo partly drawn) [Example Z603, (5S,5aS,6S,9R)-2-(8-Ethynyl-7-Fluoronaphthalen-1-Yl)-1-Fluoro-5-Methyl-12-(((1aR,6aR)-4-Methylenehexahydrocyclopropa[b]Pyrrolizin-5a (3H)-Yl)Methoxy)-5a,6,7,8,9,10-Hexahydro-5H-4-Oxa-3,10a,11,13,14-Pentaaza-6,9-Methanonaphtho[1,8-Ab]Heptalene]	217 nM	64.1 nM	110 nM	–	–	–
C#Cc1c(F)ccc2cccc(-c3nc4c5c(nc(OCC67CC(=C)CN6[C@H]6C[C@H]6C7)nc5c3F)N3C[C@H]5CC[C@H](N5)[C@H]3[C@H](C)O4)c12 (stereo partly drawn) [Example Z604, (5S,5aS,6S,9R)-2-(8-ethynyl-7-fluoronaphthalen-1-yl)-1-fluoro-5-methyl-12-(((1aS,6aS)-4-methylenehexahydrocyclopropa[b]pyrrolizin-5a (3H)-yl)methoxy)-5a,6,7,8,9,10-hexahydro-5H-4-oxa-3,10a, 11, 13,14-pentaaza-6,9-methanonaphtho[1,8-ab]heptalene]	468 nM	95 nM	573 nM	–	–	–
C#Cc1c(F)ccc2cccc(-c3nc4c5c(nc(OCC67CC(=C)CN6C[C@H]6C[C@H]67)nc5c3F)N3C[C@H]5CC[C@H](N5)[C@H]3[C@H](C)O4)c12 (stereo partly drawn) [Example Z606, (5S,5aS,6S,9R)-2-(8-ethynyl-7-fluoronaphthalen-1-yl)-1-fluoro-5-methyl-12-(((1aS,6bR)-5-methylenehexahydrocyclopropa[a]pyrrolizin-6a (4H)-yl)methoxy)-5a,6,7,8,9,10-hexahydro-5H-4-oxa-3,10a,11,13,14-pentaaza-6,9-methanonaphtho[1,8-ab]heptalene]	802 nM	874 nM	908 nM	–	–	–
C#Cc1c(F)ccc2cccc(-c3nc4c5c(nc(OCC67CC(=C)CN6CC(F)C7)nc5c3F)N3C[C@H]5CC[C@H](N5)[C@H]3[C@H](C)O4)c12 (stereo partly drawn) [Example Z607, (5S,5aS,6S,9R)-2-(8-ethynyl-7-fluoronaphthalen-1-yl)-1-fluoro-12-((2-fluoro-6-methylenetetrahydro-1H-pyrrolizin-7a (5H)-yl)methoxy)-5-methyl-5a,6,7,8,9,10-hexahydro-5H-4-oxa-3,10a,11,13,14-pentaaza-6,9-methanonaphtho[1,8-ab]heptalene]	101 nM	24.4 nM	81.2 nM	–	–	–
C#Cc1c(F)ccc2cccc(-c3nc4c5c(nc(OCC67CCCN6CC(=C(F)F)C7)nc5c3F)N3C[C@H]5CC[C@H](N5)[C@H]3[C@H](C)O4)c12 (stereo partly drawn) [Example Z608, (5S,5aS,6S,9R)-12-((2-(difluoromethylene)tetrahydro-1H-pyrrolizin-7a (5H)-yl)methoxy)-2-(8-ethynyl-7-fluoronaphthalen-1-yl)-1-fluoro-5-methyl-5a,6,7,8,9,10-hexahydro-5H-4-oxa-3,10a, 11,13,14-pentaaza-6,9-methanonaphtho[1,8-ab]heptalene]	146 nM	28.4 nM	82.3 nM	–	–	–
C#Cc1c(F)ccc2cccc(-c3nc4c5c(nc(OCC67CC(=C)CN6CCC7=C)nc5c3F)N3C[C@H]5CC[C@H](N5)[C@H]3[C@H](C)O4)c12 (stereo partly drawn) [Example Z610, (5S,5aS,6S,9R)-12-((1,6-dimethylenetetrahydro-1H-pyrrolizin-7a (5H)-yl)methoxy)-2-(8-ethynyl-7-fluoronaphthalen-1-yl)-1-fluoro-5-methyl-5a,6,7,8,9,10-hexahydro-5H-4-oxa-3,10a, 11,13,14-pentaaza-6,9-methanonaphtho[1,8-ab]heptalene]	42.3 nM	17.2 nM	18.6 nM	–	–	–
C#Cc1c(F)ccc2cccc(-c3nc4c5c(nc(OCC67CCCN6CCC7=CF)nc5c3F)N3C[C@H]5CC[C@H](N5)[C@H]3[C@H](C)O4)c12 (stereo partly drawn) [Example Z611, (5S,5aS,68,9R)-2-(8-ethynyl-7-fluoronaphthalen-1-yl)-1-fluoro-12-((1-(fluoromethylene)tetrahydro-1H-pyrrolizin-7a (5H)-yl)methoxy)-5-methyl-5a,6,7,8,9,10-hexahydro-5H-4-oxa-3,10a,11,13,14-pentaaza-6,9-methanonaphtho[1,8-ab]heptalene]	49.1 nM	19.6 nM	10.4 nM	–	–	–
